In brackets after ≈: the same amount, converted by molar mass. Values belong to the molecule of their own block, whether it stands above or below them.
How the values were obtained:
hERG (KCNH2) = hERG (KCNH2) (Homo sapiens, UniProt Q12809); test: Displacement of [3H] astemizole from human ERG channel at 5 uM; details: probe [3H] astemizole
[1] = target: Sodium channel protein type 5 subunit alpha (Homo sapiens, UniProt Q14524); test: Inhibition of full length human Nav1.5 channel expressed in HEK cells co-expressing human sodium channel subunit beta1 at holding potential -60 mV by automated voltage clamp analysis; type: cell-based, HEK293
Chain of Sodium channel protein type 5 subunit alpha (Q14524 whole entry): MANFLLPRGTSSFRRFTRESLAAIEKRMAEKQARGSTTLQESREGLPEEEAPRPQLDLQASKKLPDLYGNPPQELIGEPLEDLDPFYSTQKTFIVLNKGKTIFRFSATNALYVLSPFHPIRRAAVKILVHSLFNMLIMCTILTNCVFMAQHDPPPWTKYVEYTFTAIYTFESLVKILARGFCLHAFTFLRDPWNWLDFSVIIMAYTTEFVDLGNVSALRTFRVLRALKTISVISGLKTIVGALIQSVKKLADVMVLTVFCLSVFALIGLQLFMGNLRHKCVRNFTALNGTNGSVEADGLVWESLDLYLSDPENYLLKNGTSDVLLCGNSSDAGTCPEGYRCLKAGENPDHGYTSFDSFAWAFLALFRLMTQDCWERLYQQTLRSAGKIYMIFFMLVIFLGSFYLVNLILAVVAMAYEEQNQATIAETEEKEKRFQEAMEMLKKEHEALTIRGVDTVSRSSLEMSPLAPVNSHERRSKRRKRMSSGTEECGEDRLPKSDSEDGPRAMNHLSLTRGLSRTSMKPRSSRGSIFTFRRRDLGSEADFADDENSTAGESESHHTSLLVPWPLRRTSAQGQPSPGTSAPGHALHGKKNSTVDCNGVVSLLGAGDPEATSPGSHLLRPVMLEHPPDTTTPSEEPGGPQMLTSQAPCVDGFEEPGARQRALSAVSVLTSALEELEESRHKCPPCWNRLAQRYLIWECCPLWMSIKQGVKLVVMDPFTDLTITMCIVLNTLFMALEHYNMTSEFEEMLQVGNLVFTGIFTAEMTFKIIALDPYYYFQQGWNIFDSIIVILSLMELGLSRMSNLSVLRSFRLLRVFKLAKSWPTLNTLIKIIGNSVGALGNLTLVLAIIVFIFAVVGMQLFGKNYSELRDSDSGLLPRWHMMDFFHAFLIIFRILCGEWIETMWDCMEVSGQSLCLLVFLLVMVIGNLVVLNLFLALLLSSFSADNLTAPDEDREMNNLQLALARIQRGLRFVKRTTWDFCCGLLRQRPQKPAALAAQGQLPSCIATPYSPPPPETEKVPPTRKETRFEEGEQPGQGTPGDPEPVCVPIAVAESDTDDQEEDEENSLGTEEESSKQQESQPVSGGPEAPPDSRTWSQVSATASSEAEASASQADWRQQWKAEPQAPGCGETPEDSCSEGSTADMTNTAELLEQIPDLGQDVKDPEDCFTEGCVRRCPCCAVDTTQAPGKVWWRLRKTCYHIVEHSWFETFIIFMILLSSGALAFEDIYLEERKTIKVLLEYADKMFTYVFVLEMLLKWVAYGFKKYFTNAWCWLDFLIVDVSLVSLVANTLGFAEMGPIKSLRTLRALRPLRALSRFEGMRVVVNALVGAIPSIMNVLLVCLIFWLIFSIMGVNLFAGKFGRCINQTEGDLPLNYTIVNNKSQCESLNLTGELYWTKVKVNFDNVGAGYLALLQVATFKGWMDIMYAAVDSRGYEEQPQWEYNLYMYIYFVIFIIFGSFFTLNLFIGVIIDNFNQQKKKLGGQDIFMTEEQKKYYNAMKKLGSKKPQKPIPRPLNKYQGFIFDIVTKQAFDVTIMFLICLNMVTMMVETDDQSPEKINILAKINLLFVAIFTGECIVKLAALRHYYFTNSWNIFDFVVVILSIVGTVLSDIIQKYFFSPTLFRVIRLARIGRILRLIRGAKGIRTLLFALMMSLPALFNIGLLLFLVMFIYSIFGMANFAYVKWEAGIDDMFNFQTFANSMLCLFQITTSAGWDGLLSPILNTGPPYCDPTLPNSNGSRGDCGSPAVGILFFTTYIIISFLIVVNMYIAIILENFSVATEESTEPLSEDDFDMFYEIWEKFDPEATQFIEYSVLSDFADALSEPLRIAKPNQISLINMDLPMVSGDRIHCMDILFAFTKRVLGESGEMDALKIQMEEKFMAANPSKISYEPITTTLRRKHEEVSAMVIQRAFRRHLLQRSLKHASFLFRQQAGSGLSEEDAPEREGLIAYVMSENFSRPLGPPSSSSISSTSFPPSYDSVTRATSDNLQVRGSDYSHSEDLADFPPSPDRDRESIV

[2] = Efflux ratio of apparent permeability from apical to basolateral side to basolateral to apical side in MDCK1 cells expressing human MDR1 at 10 uM; type: ADME, cell-based, Canis lupus familiaris; details: dog, mdck1, 10 µM
Cytochrome P450 2D6 = Cytochrome P450 2D6 (Homo sapiens, UniProt P10635); test: Inhibition of CYP2D6 in human liver microsomes using dextromethorphan as substrate after 30 mins by LC/MS/MS analysis; type: ADME
[3] = target: Sodium channel protein type 1 subunit alpha (Homo sapiens, UniProt P35498); test: Inhibition of full length human Nav1.1 channel expressed in HEK cells co-expressing human sodium channel subunit beta1 at holding potential -40 mV by automated voltage clamp analysis; type: cell-based, HEK293
[4] = target: Sodium channel protein type 9 subunit alpha (Rattus norvegicus, UniProt O08562); test: Inhibition of rat Nav1.7 channel by automated voltage clamp analysis
Cytochrome P450 3A4 = Cytochrome P450 3A4 (Homo sapiens, UniProt P08684); test: Inhibition of CYP3A4 in human liver microsomes using testosterone/midazolam as substrate after 30 mins by LC/MS/MS analysis; type: ADME
[5] = Dissociation constant, pKa of the compound at 100 uM by UV-spectrophotometric titration method; type: physicochemical
[6] = Ratio of drug uptake in brain to plasma in Sprague-Dawley rat at 20 mg/kg, ip by UHPLC analysis; type: ADME, organism-based; details: read-out: BPR
[7] = AUC (0 to infinity) in Sprague-Dawley rat at 1 mg/kg, iv; type: ADME, organism-based; parameters: dose 1 mg/kg, time infinity, route intravenous; details: in vivo
[8] = target: T1, Sodium channel protein type 9 subunit alpha (Homo sapiens, UniProt Q15858); test: Inhibition of full length human Nav1.7 channel expressed in HEK cells co-expressing human sodium channel subunit beta3 at -150 mV by manual voltage clamp analysis; type: cell-based, HEK293
T1 sequence (Q15858 whole entry): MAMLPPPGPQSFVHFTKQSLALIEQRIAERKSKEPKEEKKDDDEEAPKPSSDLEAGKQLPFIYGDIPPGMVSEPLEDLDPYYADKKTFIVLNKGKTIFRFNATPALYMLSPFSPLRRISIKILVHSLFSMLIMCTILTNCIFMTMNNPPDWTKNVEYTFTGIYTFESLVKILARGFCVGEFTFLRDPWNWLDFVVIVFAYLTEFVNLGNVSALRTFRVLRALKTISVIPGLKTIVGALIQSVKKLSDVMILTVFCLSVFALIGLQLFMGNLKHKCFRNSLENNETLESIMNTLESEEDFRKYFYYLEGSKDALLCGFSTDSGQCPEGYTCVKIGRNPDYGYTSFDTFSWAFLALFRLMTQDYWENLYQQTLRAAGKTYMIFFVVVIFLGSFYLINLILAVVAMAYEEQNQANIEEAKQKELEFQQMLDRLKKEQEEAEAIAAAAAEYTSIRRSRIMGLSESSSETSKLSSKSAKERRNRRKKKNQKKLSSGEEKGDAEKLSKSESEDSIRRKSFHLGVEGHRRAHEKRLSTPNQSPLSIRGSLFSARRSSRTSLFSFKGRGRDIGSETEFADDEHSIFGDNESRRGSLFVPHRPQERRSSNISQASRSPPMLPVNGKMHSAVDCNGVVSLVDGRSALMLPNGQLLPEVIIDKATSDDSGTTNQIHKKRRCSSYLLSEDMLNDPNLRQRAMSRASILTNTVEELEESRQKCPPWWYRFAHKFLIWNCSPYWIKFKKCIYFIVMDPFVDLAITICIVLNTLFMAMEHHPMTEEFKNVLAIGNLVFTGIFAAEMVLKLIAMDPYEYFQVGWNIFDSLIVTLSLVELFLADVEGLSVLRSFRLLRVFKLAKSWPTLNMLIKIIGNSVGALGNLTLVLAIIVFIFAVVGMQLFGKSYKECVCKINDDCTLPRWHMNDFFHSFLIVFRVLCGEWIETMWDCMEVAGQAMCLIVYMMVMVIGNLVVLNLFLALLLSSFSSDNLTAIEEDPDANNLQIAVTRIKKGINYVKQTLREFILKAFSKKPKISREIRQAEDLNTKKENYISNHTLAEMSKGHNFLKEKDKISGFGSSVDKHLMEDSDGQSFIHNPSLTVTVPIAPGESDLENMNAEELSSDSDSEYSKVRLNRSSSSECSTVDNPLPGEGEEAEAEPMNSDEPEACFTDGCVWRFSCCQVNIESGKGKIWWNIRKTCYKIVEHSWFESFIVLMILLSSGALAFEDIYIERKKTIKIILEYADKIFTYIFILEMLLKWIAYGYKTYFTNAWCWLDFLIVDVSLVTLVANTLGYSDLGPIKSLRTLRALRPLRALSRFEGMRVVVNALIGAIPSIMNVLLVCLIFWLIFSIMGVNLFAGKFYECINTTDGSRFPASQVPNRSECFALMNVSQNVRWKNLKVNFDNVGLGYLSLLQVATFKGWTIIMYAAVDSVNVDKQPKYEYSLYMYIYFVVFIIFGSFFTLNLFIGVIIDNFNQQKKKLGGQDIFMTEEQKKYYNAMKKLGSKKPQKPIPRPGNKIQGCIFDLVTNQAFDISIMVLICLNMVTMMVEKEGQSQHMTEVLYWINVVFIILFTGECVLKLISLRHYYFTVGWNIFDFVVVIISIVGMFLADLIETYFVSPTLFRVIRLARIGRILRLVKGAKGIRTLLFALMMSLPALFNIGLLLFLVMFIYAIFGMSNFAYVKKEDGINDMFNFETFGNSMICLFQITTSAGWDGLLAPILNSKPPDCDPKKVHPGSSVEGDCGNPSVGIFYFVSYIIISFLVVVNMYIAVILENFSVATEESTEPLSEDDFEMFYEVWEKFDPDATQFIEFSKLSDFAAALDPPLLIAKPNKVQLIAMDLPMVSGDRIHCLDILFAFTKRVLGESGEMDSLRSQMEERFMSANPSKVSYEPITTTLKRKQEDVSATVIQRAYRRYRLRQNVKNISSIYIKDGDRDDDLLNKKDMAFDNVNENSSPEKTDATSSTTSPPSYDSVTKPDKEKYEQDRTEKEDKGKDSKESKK

[9] = Tmax in Sprague-Dawley rat at 20 mg/kg, ip; type: ADME, organism-based; details: in vivo
[10] = Cmax in Sprague-Dawley rat at 1 mg/kg, iv; type: ADME, organism-based; parameters: dose 1 mg/kg, route intravenous; details: in vivo
[11] = target: Sodium channel protein type 9 subunit alpha (Mus musculus, UniProt Q62205); test: Inhibition of Nav1.7 channel in mouse CAD cells by whole-cell patch clamp assay; type: cell-based
[12] = AUC (0 to infinity) in Sprague-Dawley rat at 20 mg/kg, ip; type: ADME, organism-based; parameters: dose 20 mg/kg, route intraperitoneal, time infinity; details: in vivo
Cytochrome P450 1A2 = target: T2, Cytochrome P450 1A2 (Homo sapiens, UniProt P05177); test: Inhibition of CYP1A2 in human liver microsomes using phenacetin as substrate after 30 mins by LC/MS/MS analysis; type: ADME
T2 sequence (P05177 whole entry): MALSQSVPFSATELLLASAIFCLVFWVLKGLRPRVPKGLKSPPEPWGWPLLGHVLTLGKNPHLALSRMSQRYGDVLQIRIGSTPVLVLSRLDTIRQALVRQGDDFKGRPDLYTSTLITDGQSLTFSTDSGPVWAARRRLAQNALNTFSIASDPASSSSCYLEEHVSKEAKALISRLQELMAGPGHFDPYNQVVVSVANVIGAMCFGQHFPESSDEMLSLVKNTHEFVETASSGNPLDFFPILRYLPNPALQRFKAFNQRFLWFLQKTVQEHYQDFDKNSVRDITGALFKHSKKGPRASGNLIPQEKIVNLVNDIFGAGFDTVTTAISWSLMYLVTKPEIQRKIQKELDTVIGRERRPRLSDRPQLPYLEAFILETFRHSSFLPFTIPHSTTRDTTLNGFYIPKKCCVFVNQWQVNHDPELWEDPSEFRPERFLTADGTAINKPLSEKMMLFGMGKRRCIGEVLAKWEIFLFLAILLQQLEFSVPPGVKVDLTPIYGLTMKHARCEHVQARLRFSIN

[13] = Plasma protein binding in rat at 10 uM incubated for 20 hrs by HPLC-MS/MS analysis; type: ADME, cell-free; details: read-out: PPB (converted)
[14] = Half life in Sprague-Dawley rat at 20 mg/kg, ip; type: ADME, organism-based; details: in vivo
[15] = Half life in Sprague-Dawley rat at 1 mg/kg, iv; type: ADME, organism-based; details: in vivo
[16] = Volume of distribution at steady state in Sprague-Dawley rat at 1 mg/kg, iv; type: ADME, organism-based; details: in vivo, read-out: Vdss
[17] = Plasma clearance in Sprague-Dawley rat at 1 mg/kg, iv; type: ADME, organism-based
[18] = target: Sodium channel protein type 2 subunit alpha (Homo sapiens, UniProt Q99250); test: Inhibition of full length human Nav1.2 channel expressed in HEK cells co-expressing human sodium channel subunit beta1 at holding potential -35 mV by automated voltage clamp analysis; type: cell-based, HEK293
[19] = Kinetic solubility of compound at pH 7.2; type: physicochemical; details: buffer, read-out: Kinetic_solubility
[20] = target: T1, Sodium channel protein type 9 subunit alpha; test: Inhibition of full length human Nav1.7 channel expressed in HEK cells co-expressing human sodium channel subunit beta1 at holding potential -60 mV by automated voltage clamp analysis; type: cell-based, HEK293
Cytochrome P450 2C9 = Cytochrome P450 2C9 (Homo sapiens, UniProt P11712); test: Inhibition of CYP2C9 in human liver microsomes using warfarin as substrate after 30 mins by LC/MS/MS analysis; type: ADME
[21] = Cmax in Sprague-Dawley rat at 20 mg/kg, ip; type: ADME, organism-based; parameters: dose 20 mg/kg, route intraperitoneal; details: in vivo
[22] = target: Sodium channel protein type 8 subunit alpha (Homo sapiens, UniProt Q9UQD0); test: Inhibition of full length human Nav1.6 channel expressed in HEK cells co-expressing human sodium channel subunit beta1 at holding potential -35 mV by automated voltage clamp analysis; type: cell-based, HEK293
[23] = Apparent permeability from apical to basolateral side in MDCK1 cells at 10 uM incubated for 2 hrs; type: ADME, cell-based, Canis lupus familiaris; details: dog, MDCK

Chain of hERG (KCNH2) (Q12809 whole entry): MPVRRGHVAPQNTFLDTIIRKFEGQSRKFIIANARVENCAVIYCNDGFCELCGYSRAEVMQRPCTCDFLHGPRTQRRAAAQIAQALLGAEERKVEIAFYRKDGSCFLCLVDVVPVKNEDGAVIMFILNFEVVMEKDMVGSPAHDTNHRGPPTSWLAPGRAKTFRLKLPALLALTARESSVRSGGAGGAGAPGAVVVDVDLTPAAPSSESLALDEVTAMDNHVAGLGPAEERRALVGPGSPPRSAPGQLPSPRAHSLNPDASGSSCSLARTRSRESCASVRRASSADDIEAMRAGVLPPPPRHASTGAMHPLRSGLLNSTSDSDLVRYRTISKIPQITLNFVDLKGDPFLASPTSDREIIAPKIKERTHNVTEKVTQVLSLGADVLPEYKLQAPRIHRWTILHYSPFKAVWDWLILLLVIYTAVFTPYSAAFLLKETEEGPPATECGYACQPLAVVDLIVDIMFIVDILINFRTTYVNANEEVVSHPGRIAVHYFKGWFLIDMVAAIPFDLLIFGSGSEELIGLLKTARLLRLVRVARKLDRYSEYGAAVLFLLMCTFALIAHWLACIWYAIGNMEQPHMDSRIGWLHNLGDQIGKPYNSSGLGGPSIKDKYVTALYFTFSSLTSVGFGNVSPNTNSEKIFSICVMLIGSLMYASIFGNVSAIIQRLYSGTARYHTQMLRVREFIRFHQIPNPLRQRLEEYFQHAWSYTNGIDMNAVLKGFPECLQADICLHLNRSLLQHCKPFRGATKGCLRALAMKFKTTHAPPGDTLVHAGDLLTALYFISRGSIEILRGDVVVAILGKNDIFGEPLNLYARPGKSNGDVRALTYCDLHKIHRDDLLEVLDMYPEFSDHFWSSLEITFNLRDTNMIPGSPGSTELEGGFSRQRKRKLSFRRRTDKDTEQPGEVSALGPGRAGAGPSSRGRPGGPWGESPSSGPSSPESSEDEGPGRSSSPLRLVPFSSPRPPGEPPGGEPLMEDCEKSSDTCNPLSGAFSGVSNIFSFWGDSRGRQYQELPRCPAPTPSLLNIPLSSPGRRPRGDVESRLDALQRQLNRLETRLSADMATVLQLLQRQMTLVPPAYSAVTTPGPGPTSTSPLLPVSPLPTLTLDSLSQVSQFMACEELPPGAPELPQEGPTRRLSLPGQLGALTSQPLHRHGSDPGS

SMILES: CNc1noc2ccc(-c3cc(Cl)ccc3Oc3cc(F)c(S(=O)(=O)Nc4ncns4)cc3F)cc12
inhibition at 5 µM (hERG (KCNH2)): < 11% | IC50 [1]: 230 nM

SMILES: O=S(=O)(Nc1ncns1)c1cc(F)c(Oc2ccc(Cl)cc2-c2ccc3[nH]cnc3c2)cc1F
inhibition at 5 µM (hERG (KCNH2)): < 11% | IC50 [1]: > 10000 nM

SMILES: Nc1noc2ccc(-c3ccccc3Oc3cc(F)c(S(=O)(=O)Nc4ncns4)cc3F)cc12
inhibition at 5 µM (hERG (KCNH2)): < 11%

Ratio [2]: 47 | IC50 (Cytochrome P450 2D6): > 9000 nM | IC50 [3]: 3080 nM | IC50 [4]: 26 nM | IC50 (Cytochrome P450 3A4): 77 nM | pKa at 100 µM [5]: 3.2 | Kp [6]: 0.019 | AUC(0-inf) [7]: 0.18 µM·h | IC50 [8]: 0.4 nM | Tmax [9]: 3.6 min | Cmax [10]: 2.9 µM | IC50 [11]: 0.2 nM | AUC(0-inf) [12]: 13.5 µM·h | IC50 (Cytochrome P450 1A2): > 9000 nM | fraction unbound at 20 h, 10 µM [13]: 0.011 | half-life [14]: 132 min | half-life [15]: 7.8 min | Vd [16]: 1.4 L/kg | clearance [17]: 177 mL/min/kg | IC50 [18]: 4.2 nM | solubility kinetic [19]: 121 µM (≈ 64.8 µg/mL) | IC50 [20]: 0.4 nM | IC50 (Cytochrome P450 2C9): 170 nM | Cmax [21]: 5.3 µM | IC50 [22]: 11 nM | Papp A→B at 2 h, 10 µM [23]: 2.1 ×10⁻⁶ cm/s
SMILES: Nc1noc2ccc(-c3cc(Cl)ccc3Oc3cc(F)c(S(=O)(=O)Nc4ncns4)cc3F)cc12
inhibition at 5 µM (hERG (KCNH2)): < 11% | IC50 [1]: 1380 nM

SMILES: Nc1noc2ccc(-c3cc(Cl)ccc3Oc3cc(F)c(S(=O)(=O)Nc4cscn4)cc3F)cc12
inhibition at 5 µM (hERG (KCNH2)): < 11%

SMILES: Nc1noc2ccc(-c3cccnc3Oc3cc(F)c(S(=O)(=O)Nc4ncns4)cc3F)cc12
inhibition at 5 µM (hERG (KCNH2)): < 11%

SMILES: O=S(=O)(Nc1ncns1)c1cc(F)c(Oc2ccc(Cl)cc2-c2ncc3cnccn23)cc1F
inhibition at 5 µM (hERG (KCNH2)): < 11%

SMILES: O=c1[nH]c2ccc(-c3cc(Cl)ccc3Oc3cc(F)c(S(=O)(=O)Nc4ncns4)cc3F)cc2[nH]1
inhibition at 5 µM (hERG (KCNH2)): < 11% | IC50 [1]: > 10000 nM

SMILES: Nc1noc2ccc(-c3cc(F)ccc3Oc3cc(F)c(S(=O)(=O)Nc4ncns4)cc3F)cc12
inhibition at 5 µM (hERG (KCNH2)): < 11%
